Patent publication US7476689B2, “Therapeutic compositions for intranasal administration which include KETOROLAC” (Recordati Ireland Limited, priority 1991, dated 2009)

Legend:
patients = details: cited from earlier work
[1] = nasal absorption: KTM plasma levels by HPLC after intranasal or intravenous administration; type: in vivo, White New Zealand rabbits; details: rabbit
Experimental: Each rabbit received a active preparation in one nostril and its placebo in the other. Each animal received 2 mg/kg of KETOROLAC® tromethamine (KTM), twice a day for seven days and once on the eighth day. The control rabbits were treated, after seven days of nasal administration of physiologic solution, with 2 mg/kg of KTM by intravenous route once. After the last treatment plasma samples were collected at several times and KTM plasma levels were investigated by HPLC. After the last blood sample was drawn all the animals were killed by excision of femoral arteries, after having been completely anaesthetized. Nasal turbinates, larynx and pharynx were removed and subjected to histological examinations.

SMILES | patients with one or more undesirable side effects (patients; intramuscular route, 20 doses of 30 mg each over five days) | patients with gastrointestinal disorders (patients; oral administration) | incidence of side effects (patients; oral route for a few days) | concentration at 0.083 h ([1]; New Zealand White, plasma, intravenous 2 mg/kg once, 0.083 hours) [ng/mL] | concentration at 0.25 h ([1]; New Zealand White, plasma, intravenous 2 mg/kg once, 0.25 hours) [ng/mL] | concentration at 0.5 h ([1]; New Zealand White, plasma, intravenous 2 mg/kg once, 0.5 hours) [ng/mL] | concentration at 1 h ([1]; New Zealand White, plasma, intravenous 2 mg/kg once, 1 hour) [ng/mL] | concentration at 2 h ([1]; New Zealand White, plasma, intravenous 2 mg/kg once, 2 hours) [ng/mL] | concentration at 3 h ([1]; New Zealand White, plasma, intravenous 2 mg/kg once, 3 hours) [ng/mL] | concentration at 5 h ([1]; New Zealand White, plasma, intravenous 2 mg/kg once, 5 hours) [ng/mL] | AUC(0-t) ([1]; New Zealand White, plasma, intravenous 2 mg/kg, mean of three animals, read-out: AUC0-5, average) [ng·h/mL] | Plasma Concentration of KTM, Mean ([1]; intravenous 2 mg/kg once, sampling time Basal) [ng/mL]
O=C(c1ccccc1)c1ccc2n1CCC2C(=O)O (stereo not drawn) [KETOROLAC®, 5-benzoyl-2,3-dihydro-1H-pyrrolizine-1-carboxylic acid] | about 10% | up to 50% | around 32% |  |  |  |  |  |  |  |  | 
O=C(c1ccccc1)c1ccc2n1CCC2C(=O)O (stereo not drawn) [KTM, KETOROLAC® tromethamine] |  |  |  | 14500 | 7680 | 3880 | 1700 | 403 | 120 | 20 | 7360 | 0
